From PMC3909258, “Tannins from Hamamelis virginiana Bark Extract: Characterization and Improvement of the Antiviral Efficacy against Influenza A Virus and Human Papillomavirus” (PLoS ONE, 2014)
pEC50: −log10 of the molar value. Values joined by “and” are separate entries in the source; they are usually repeats but may differ in a detail not shown here. Equal values may be shown once.

Assays:
[1] = system: pandemic H1N1 A/Lux/46/2009; format: cell-based, influenza A virus
[2] = in vitro; conditions: human
[3] = system: H1N1 A/Puerto Rico/8/34-NS116-GFP; test: Antiviral effect against GFP reporter virus on A549 cells; conditions: for SI (CC50/EC50): CC50 A549 XTT / EC50 reporter virus
[4] = Tannin depletion with hide powder, phenols by Folin-Ciocalteu; conditions: pyrogallol equivalents normalized to untreated sample
[5] = XTT cytotoxicity assay on A549 cells; conditions: human
[6] = Influenza A virus, H1N1, A549, 24 h

O=C(O[C@@H]1Cc2c(O)cc(O)cc2O[C@@H]1c1cc(O)c(O)c(O)c1)c1cc(O)c(O)c(O)c1 [EGCG, (−)-epigallocatechin gallate]
Lower viral titer after virus preincubation [1]: ~7 fold
CC50 at 24 h [2]: 1.03 mM and 472 µg/mL
SI (CC50/EC50) [3]: 85
EC50 [3, 6]: 12.1 µM and 5.6 µg/mL
Remaining phenol content after hide powder treatment [4]: intermediate reduction

O=C(O)c1cc(O)c(O)c(O)c1 [Gallic acid, Gallic acid monohydrate]
CC50 at 24 h [5]: 770 µM and 145 µg/mL
EC50 [3, 6]: 50.8 µM and 9.6 µg/mL
Remaining phenol content after hide powder treatment [4]: 89 % of untreated

O=C(OC[C@H]1OC(O)[C@@](O)(COC(=O)c2cc(O)c(O)c(O)c2)[C@@H]1O)c1cc(O)c(O)c(O)c1 (some centres unmarked) [Hamamelitannin, hamamelitannin]
pEC50 [3, 6]: < 2.00

O=C(OC[C@H]1O[C@@H](OC(=O)c2cc(O)c(O)c(O)c2)[C@H](OC(=O)c2cc(O)c(O)c(O)c2)[C@@H](OC(=O)c2cc(O)c(O)c(O)c2)[C@@H]1OC(=O)c1cc(O)c(O)c(O)c1)c1cc(O)c(O)c(O)c1 [Pentagalloylglucose, penta-O-galloyl-β-D-glucose]
CC50 at 24 h [5]: 779 µM and 733 µg/mL
SI (CC50/EC50) [3]: 40.0
SI (CC50/EC50) ([3]; listed as pentagalloylglucose): 40
EC50 [3, 6]: 19.5 µM and 18.3 µg/mL

O=C(OC[C@H]1O[C@@H](OC(=O)c2cc(O)c(O)c(OC(=O)c3cc(O)c(O)c(O)c3)c2)[C@H](OC(=O)c2cc(O)c(O)c(OC(=O)c3cc(O)c(O)c(O)c3)c2)[C@@H](OC(=O)c2cc(O)c(O)c(OC(=O)c3cc(O)c(O)c(O)c3)c2)[C@@H]1OC(=O)c1cc(O)c(O)c(OC(=O)c2cc(O)c(O)c(O)c2)c1)c1cc(O)c(O)c(OC(=O)c2cc(O)c(O)c(O)c2)c1 [Tannic acid, tannic acid]
SI (CC50/EC50) [3]: 30.7
